In patent publication US10544154B2, “Opioid receptor antagonist prodrugs” (Nirsum Laboratories, Inc., priority 2017, dated 2020):
“Also recorded” adds a separate entry of the source.

Assay: Clinical observations for dogs in pharmacokinetic studies
Format: in vivo, Beagle dogs
Settings: 48 mg/kg
Procedure: Weight monitoring was done every week.
The dose formulation (concentration—400 mg base equivalents/ml in sesame oil+1% benzyl alcohol, unless otherwise specified) was administered via deep intramuscularly (unless otherwise specified). The injection vehicle was also dosed via deep intramuscular route (unless otherwise specified) on contralateral site of each animal at study initiation. The animals were sedated with Propofol at 6 mg/kg via IV administration. Following sedation hair was carefully removed from around the injection site and the area gently cleaned. Care will be taken to avoid irritating skin during shaving and cleaning the injection site. Then dogs will be dosed with deep IM administration. At least 2.5 cm depth from the surface into the central aspect of the quadriceps or biceps femoris muscle, by angling the needle toward the femur. If the needle hits the femur, simply draws back slightly and then inject. The dose volume will be determined by the animals' body weight collected on the morning of dosing day. For repeated administration, the injection sites may be rotated to minimize tissue injury.

[1] = dog D1502 (third dog, c6), 96 hr
[2] = dog D1502 (third dog, c6), 120 hr
[3] = dog D1502 (third dog, c6), 144 hr
[4] = dog D1502 (third dog, c6), 192 hr
[5] = dog D1502 (third dog, c6), 216 hr

With `C=C1CC[C@@]2(O)C3Cc4ccc(OC(=O)OCCCCCCCCCCC)c5c4[C@@]2(CCN3CC2CC2)[C@H]1O5` [Compound 3, (4aS,7aS,12bS)-3-(cyclopropylmethyl)-4a-hydroxy-7-methylene-2,3,4,4a,5,6,7,7a-octahydro-1H-4,12-methanobenzofuro[3,2-e]isoquinolin-9-yl undecyl carbonate] the BT (dog D1001, Day 1) was “cm/BT: 39.2° C./”, the BT (dog D1001, Day 2) was 38.9 °C and the BT (dog D1001, Day 3) was 39.1 °C. The BT (dog D1001, Day 4) was 38.5 °C, the BT (dog D1001, Day 5) was 38.6 °C and the BT (dog D1001, Day 6) was 38.4 °C. For the same molecule, the BT (dog D1001, Day 7) was 38.4 °C, the BT (dog D1001, Day 8) was 38.7 °C and the BT (dog D1001, Day 9) was 38.7 °C. It also gave a BT (dog D1001, Day 10) of 38.4 °C, a BT (dog D1001, Day 11) of 38.8 °C and a BT (dog D1001, Day 12) of 38.0 °C. For the same molecule, the BT (dog D1001, Day 13) was 38.4 °C, the BT (dog D1001, Day 15) was 37.8 °C and the BT (dog D1001, Day 17) was “BT: 38.3 °C”. The BT (dog D1001, Day 18) was “BT: 38.4 °C”, the BT (dog D1001, Day 19) was “BT: 38.3 °C” and the BT (dog D1001, Day 20) was “BT: 37.9 °C”. For the same molecule, the BT (dog D1001, Day 21) was “BT: 38.6 °C”, the BT (dog D1001, Day 22) was “BT: 38.8 °C” and the BT (dog D1001, Day 23) was “BT: 38.3 °C”. The BT (dog D1001, Day 24) was “BT: 38.5 °C”, the BT (dog D1001, Day 25) was “BT: 38.4 °C” and the BT (dog D1001, Day 26) was “BT: 38.2 °C”. For the same molecule, the BT (dog D1001, Day 27) was “BT: 38.4 °C”, the BT (dog D1002, Day 1) was 39.1 °C and the BT (dog D1002, Day 2) was 39.3 °C. For the same molecule, the BT (dog D1002, Day 3) was 39.3 °C, the BT (dog D1002, Day 4) was 38.5 °C and the BT (dog D1002, Day 5) was 38.7 °C. It also gave a BT (dog D1002, Day 6) of 38.8 °C, a BT (dog D1002, Day 7) of 38.6 °C and a BT (dog D1002, Day 8) of 38.7 °C. The BT (dog D1002, Day 9) was 38.3 °C, the BT (dog D1002, Day 10) was “calf/BT: 38.3 °C” and the BT (dog D1002, Day 11) was 38.9 °C. The BT (dog D1002, Day 12) was 38.5 °C, the BT (dog D1002, Day 13) was 38.8 °C and the BT (dog D1002, Day 14) was 38.3 °C. The BT (dog D1002, Day 15) was 37.8 °C, the BT (dog D1002, Day 17) was 38.7 °C and the BT (dog D1002, Day 18) was 38.8 °C. For the same molecule, the BT (dog D1002, Day 19) was 38.7 °C, the BT (dog D1002, Day 20) was 38.6 °C and the BT (dog D1002, Day 21) was “BT: 38.5 °C”. For the same molecule, the BT (dog D1002, Day 22) was “BT: 39.3 °C”, the BT (dog D1002, Day 23) was “BT: 38.8 °C” and the BT (dog D1002, Day 24) was “BT: 39.1 °C”. For the same molecule, the BT (dog D1002, Day 25) was “BT: 38.6 °C”, the BT (dog D1002, Day 26) was “BT: 38.6 °C” and the BT (dog D1002, Day 27) was “cm/BT: 38.6 °C”. The “Clinical observation, R-TA” value (dog D1003, 8 hr) was “Swelling 4 * 3”, the BT (dog D1003, Day 1) was “side/BT: 39.6 °C” and the BT (dog D1003, Day 2) was “side/BT: 39.7 °C”. For the same molecule, the BT (dog D1003, Day 3) was 39.2 °C, the BT (dog D1003, Day 4) was “site/BT: 38.7 °C” and the BT (dog D1003, Day 5) was 39.0 °C. The BT (dog D1003, Day 6) was 39.2 °C, the BT (dog D1003, Day 7) was 39.5 °C and the BT (dog D1003, Day 8) was 39.4 °C. For the same molecule, the BT (dog D1003, Day 9) was 38.8 °C, the BT (dog D1003, Day 10) was 38.9 °C and the BT (dog D1003, Day 11) was “swelling/BT: 39.4 °C”. For the same molecule, the BT (dog D1003, Day 12) was “swelling/BT: 39.3 °C”, the BT (dog D1003, Day 13) was “swelling/BT: 39.9 °C” and the BT (dog D1003, Day 15) was “swelling/BT: 39.4 °C”. For the same molecule, the BT (dog D1003, Day 17) was “swelling/BT: 39.5 °C”, the BT (dog D1003, Day 18) was “swelling/BT: 39.5 °C” and the BT (dog D1003, Day 19) was “swelling/BT: 39.4 °C”. For the same molecule, the BT (dog D1003, Day 21) was “swelling/BT: 39.3 °C”, the BT (dog D1003, Day 22) was “swelling/BT: 39.9 °C” and the BT (dog D1003, Day 24) was “BT: 39.5 °C”. For the same molecule, the BT (dog D1003, Day 25) was “BT: 39.8 °C”, the BT (dog D1003, Day 26) was “BT: 39.3 °C” and the BT (dog D1003, Day 27) was “BT: 38.9 °C”.

In the case of `C=C1CC[C@@]2(O)C3Cc4ccc(OCOC(=O)OCCCCCCCCCC)c5c4[C@@]2(CCN3CC2CC2)[C@H]1O5` [Compound 35, (((4aS,7aS,12bS)-3-(cyclopropylmethyl)-4a-hydroxy-7-methylene-2,3,4,4a,5,6,7,7a-octahydro-1H-4,12-methanobenzofuro[3,2-e]isoquinolin-9-yl)oxy)methyl decyl carbonate], the “Clinical observation, R-TA” value (dog D1501, 24 hr) is reported as “Red spots at groin”, the “Clinical observation, R-TA” value (dog D1501, 48 hr) is reported as “Red spots at groin” and the BT (dog D1501, 72 hr) is reported as “at groin/BT: 39.1 °C”. The “Clinical observation, R-TA” value (dog D1501, 72 hr) was “Swelling; also recorded: Red spots”, the BT (dog D1501, 96 hr) was “at groin/BT: 39.0 °C” and the “Clinical observation, R-TA” value (dog D1501, 96 hr) was “Swelling; also recorded: Red spots”. The BT (dog D1501, 120 hr) was “at groin/BT: 39.1 °C”, the “Clinical observation, R-TA” value (dog D1501, 120 hr) was “Swelling; also recorded: Red spots” and the BT (dog D1501, 144 hr) was “groin/BT: 38.7 °C”. The BT (dog D1501, 192 hr) was “groin/BT: 38.2 °C”, the BT (dog D1501, 216 hr) was “groin/BT: 38.6 °C” and the “Clinical observation, R-TA” value (dog D1501, 216 hr) was “redness/Red spots at”. The BT (dog D1501, 240 hr) was “groin/BT: 38.2 °C”, the “Clinical observation, R-TA” value (dog D1501, 240 hr) was “induration” and the BT (dog D1501, 264 hr) was “groin/BT: 38.0 °C”. For the same molecule, the “Clinical observation, R-TA” value (dog D1501, 264 hr) was “induration”, the BT (dog D1501, 288 hr) was “groin/BT: 38.4 °C” and the “Clinical observation, R-TA” value (dog D1501, 288 hr) was “induration”. The BT (dog D1501, […]) was “groin/BT: 38.9 °C”, the “Clinical observation, R-TA” value (dog D1501, day 13) was “induration” and the “Clinical observation, R-TA” value (dog D1501, day 14) was “induration”. For the same molecule, the “Clinical observation, R-TA” value (dog D1501, day 15) was “induration”, the “Clinical observation, R-TA” value (dog D1501, day 16) was “induration” and the “Clinical observation, R-TA” value (dog D1501, day 17) was “induration”. For the same molecule, the “Clinical observation, R-TA” value (dog D1501, day 18) was “induration”, the “Clinical observation, R-TA” value (dog D1502 (third dog, c6), 24 hr) was “Slight swelling/red” and the “Clinical observation, R-TA” value (dog D1502 (third dog, c6), 48 hr) was “Slight swelling/red”. The BT (dog D1502 (third dog, c6), 72 hr) was “leg/BT: 39.3 °C”, the BT [1] was “leg/BT: 39.3 °C” and the “Clinical observation, R-TA” value [1] was “induration and red”. The BT [2] was “BT: 39.4 °C”, the “Clinical observation, R-TA” value [2] was “induration and red” and the BT [3] was “BT: 39.0 °C”. The “Clinical observation, R-TA” value [3] was “induration and red”, the BT [4] was “at calf/BT: 39.2 °C” and the “Clinical observation, R-TA” value [4] was “Obvious swelling”. For the same molecule, the BT [5] was “calf/BT: 39.2 °C”, the “Clinical observation, R-TA” value [5] was “red spot” and the BT (dog D1502 (third dog, c6), 240 hr) was “calf/BT: 38.9 °C”. For the same molecule, the BT (dog D1502 (third dog, c6), 264 hr) was 38.7 °C, the BT (dog D1502 (third dog, c6), 288 hr) was 38.7 °C and the BT (dog D1502 (third dog, c6), […]) was “at calf/BT: 39.3 °C”. For the same molecule, the “Clinical observation, R-TA” value (dog D1502 (third dog, c6), day 20) was “Not obvious”, the BT (dog D1502, 72 hr) was 39.6 °C and the “Clinical observation, R-TA” value (dog D1502, 72 hr) was “red”. For the same molecule, the BT (dog D1502, 96 hr) was 38.9 °C, the BT (dog D1502, 120 hr) was 39.6 °C and the BT (dog D1502, 144 hr) was 38.9 °C. For the same molecule, the “Clinical observation, R-TA” value (dog D1502, 144 hr) was “redness”, the BT (dog D1502, 192 hr) was “BT: 38.7 °C” and the BT (dog D1502, 216 hr) was “BT: 39.2 °C”. For the same molecule, the BT (dog D1502, 240 hr) was “BT: 38.6 °C”, the BT (dog D1502, 264 hr) was “BT: 38.4 °C” and the BT (dog D1502, 288 hr) was “BT: 38.6 °C”. The BT (dog D1502, […]) was 39.9 °C.
